Assay [1] concerns the target T1, Recombinant STAT3 protein (STAT3(G127-I722)) (Homo sapiens, UniProt P40763).
T1 construct: STAT3(G127-I722)
Put plainly: STAT3 Fluorescence Polarization (FP) Assay. It counts as binding. To be noted: STAT3(G127-I722) 25 nM, probe 5-FAM-GpYLPQTV-NH2 2 nM, 45-minute incubation. In outline: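 STAT3(G127-I722) at 25 nM and 5-FAM-GpYLPQTV-NH2 probe at 2 nM in HEPES pH 7.4 buffer with NaCl, EDTA, Tween 20, DTT; 1% DMSO. FP read after 45 min at room temperature; IC50 by nonlinear regression of mP vs log concentration, binned A ≤100 nM to D >10 μM.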

For assay [2], the target named is T2, Recombinant STAT6 protein (STAT6(W123-T658)) (Homo sapiens, UniProt P42226).
T2 construct: STAT6(W123-T658)
T2 sequence (P42226 123-658): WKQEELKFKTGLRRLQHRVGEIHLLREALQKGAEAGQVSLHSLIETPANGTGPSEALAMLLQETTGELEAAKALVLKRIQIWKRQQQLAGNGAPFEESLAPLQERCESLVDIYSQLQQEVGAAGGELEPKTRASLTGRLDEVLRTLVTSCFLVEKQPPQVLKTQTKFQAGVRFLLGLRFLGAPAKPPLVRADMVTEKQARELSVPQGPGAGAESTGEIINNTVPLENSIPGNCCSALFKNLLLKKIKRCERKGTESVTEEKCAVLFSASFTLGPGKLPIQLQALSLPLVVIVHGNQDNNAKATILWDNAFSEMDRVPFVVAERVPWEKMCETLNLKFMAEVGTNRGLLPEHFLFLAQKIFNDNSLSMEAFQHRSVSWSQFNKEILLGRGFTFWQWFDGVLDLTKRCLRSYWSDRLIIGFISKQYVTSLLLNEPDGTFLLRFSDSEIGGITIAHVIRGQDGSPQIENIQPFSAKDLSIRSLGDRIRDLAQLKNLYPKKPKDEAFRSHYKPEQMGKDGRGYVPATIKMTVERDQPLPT
The experiment in a line: STAT6 Fluorescence Polarization (FP) Assay. It counts as binding. Particulars: STAT6(W123-T658) 250 nM, probe 5-FAM-ApYKPFQDLI-NH2 2 nM, 45-minute incubation. In outline: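 STAT6 (W123-T658) at 250 nM mixed with 2 nM 5-FAM-ApYKPFQDLI-NH2 probe in HEPES pH 7.4 buffer with DTT and Tween 20, 1% DMSO final. Polarization read after 45 min at room temperature; IC50 by nonlinear regression of mP versus log concentration, reported in bins A–D.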

T1 sequence (P40763 127-722, species assumed): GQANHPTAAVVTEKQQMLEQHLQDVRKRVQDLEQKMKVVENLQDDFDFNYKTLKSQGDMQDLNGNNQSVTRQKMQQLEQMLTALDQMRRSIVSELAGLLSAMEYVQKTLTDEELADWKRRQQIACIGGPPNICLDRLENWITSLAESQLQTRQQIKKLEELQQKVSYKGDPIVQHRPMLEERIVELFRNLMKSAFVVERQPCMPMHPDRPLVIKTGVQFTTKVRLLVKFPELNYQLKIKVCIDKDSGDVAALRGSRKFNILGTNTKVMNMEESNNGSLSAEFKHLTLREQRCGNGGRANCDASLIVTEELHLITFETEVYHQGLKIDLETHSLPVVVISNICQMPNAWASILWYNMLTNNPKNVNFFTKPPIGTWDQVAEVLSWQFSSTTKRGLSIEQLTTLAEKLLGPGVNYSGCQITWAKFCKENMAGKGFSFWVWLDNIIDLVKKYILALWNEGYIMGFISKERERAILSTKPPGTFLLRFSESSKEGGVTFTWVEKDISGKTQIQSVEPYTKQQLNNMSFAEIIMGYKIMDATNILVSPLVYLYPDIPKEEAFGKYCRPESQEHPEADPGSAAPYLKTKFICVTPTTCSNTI

In general, IC50 refers to the point on the concentration scale where inhibition reaches its midpoint. Consider `C[C@@H]1[C@@H](n2ccnc2)CN1C(=O)[C@@H]1CC[C@@H]2C[C@H]3C[C@H]3C[C@H](NC(=O)c3cc4cc(C(F)(F)P(=O)(O)O)ccc4s3)C(=O)N21` [Compound 19, ((2-(((3S,6S,7aS,8aR,9aR)-3-((2R,3S)-3-(1H-imidazol-1-yl)-2-methylazetidine-1-carbonyl)-5-oxodecahydro-1H-cyclopropa[d]pyrrolo[1,2-a]azocin-6-yl)carbamoyl)benzo[b]thiophen-5-yl)difluoromethyl)phosphonic acid], for which the values for the IC50 in assay [1] and in assay [2] were below 0.1 µM and 3 to 30 µM, respectively.
The matching figures for `CC(=O)N1C[C@@H](F)[C@@H](NC(=O)[C@@H]2CC[C@@H]3C[C@@H]4C[C@@H]4C[C@H](NC(=O)c4cc5cc(C(F)(F)P(=O)(O)O)ccc5s4)C(=O)N32)C1` [Compound 127, ((2-(((3S,6S,7aR,8aS,9aR)-3-(((3S,4R)-1-acetyl-4-fluoropyrrolidin-3-yl)carbamoyl)-5-oxodecahydro-1H-cyclopropa[d]pyrrolo[1,2-a]azocin-6-yl)carbamoyl)benzo[b]thiophen-5-yl)difluoromethyl)phosphonic acid]: below 0.1 µM and 3 to 30 µM.
For `O=C(N[C@H]1C[C@@H]2C[C@@H]2CC2CC[C@@H](C(=O)N3CC(c4cncnc4N4CCC4)C3)N2C1=O)c1cc2cc([C@@H](F)P(=O)(O)O)ccc2s1` (single isomer, unassigned) [Example 401], the values for the half-maximal inhibitory concentration (IC50) in assay [1] and in assay [2] were below 0.1 µM and 3 to 30 µM, respectively.
With `Cc1cnc(C2CN(C(=O)[C@@H]3CC[C@@H]4C[C@H]5C[C@H]5C[C@H](NC(=O)c5cc6cc(C(F)P(=O)(O)O)ccc6s5)C(=O)N43)C2)o1` (stereo partly drawn) [Example 324, (fluoro(2-(((3S,6S,7aS,8aR,9aR)-3-(3-(5-methyloxazol-2-yl)azetidine-1-carbonyl)-5-oxodecahydro-1H-cyclopropa[d]pyrrolo[1,2-a]azocin-6-yl)carbamoyl)benzo[b]thiophen-5-yl)methyl)phosphonic acid], the values for the IC50 in assay [1] and in assay [2] were 0.1 to 1 µM and 3 to 30 µM, respectively.
The like results for `COc1ccncc1C1CN(C(=O)[C@@H]2CC[C@@H]3C[C@@H]4C[C@@H]4C[C@H](NC(=O)c4cc5cc([C@@H](F)P(=O)(O)O)ccc5s4)C(=O)N32)C1` (single isomer, unassigned) [Example 354] were, in that order, below 0.1 µM and above 30 µM.
The matching figures for `Cc1ccc2c(c1)OCCN2C(=O)[C@@H]1CC[C@@H]2C[C@H]3C[C@H]3C[C@H](NC(=O)c3cc4cc(C(F)P(=O)(O)O)ccc4s3)C(=O)N21` (stereo partly drawn) [Example 383, (fluoro(2-(((3S,6S,7aS,8aR,9aR)-3-(7-methyl-3,4-dihydro-2H-benzo[b][1,4]oxazine-4-carbonyl)-5-oxodecahydro-1H-cyclopropa[d]pyrrolo[1,2-a]azocin-6-yl)carbamoyl)benzo[b]thiophen-5-yl)methyl)phosphonic acid]: 1 to 10 µM and 0.3 to 3 µM.
`Cc1cccc(C2CN(C(=O)[C@@H]3CC[C@@H]4C[C@@H]5C[C@@H]5C[C@H](NC(=O)c5cc6cc(C(F)(F)P(=O)(O)O)ccc6s5)C(=O)N43)C2)c1` [Compound 68, (difluoro(2-(((3S,6S,7aR,8aS,9aR)-5-oxo-3-(3-(m-tolyl)azetidine-1-carbonyl)decahydro-1H-cyclopropa[d]pyrrolo[1,2-a]azocin-6-yl)carbamoyl)benzo[b]thiophen-5-yl)methyl)phosphonic acid]: the IC50 is below 0.1 µM in assay [1] and 0.3 to 3 µM in assay [2].
On to `O=C(N[C@H]1C[C@H]2C[C@H]2C[C@H]2CC[C@@H](C(=O)N3CC(N4CCS(=O)(=O)CC4)C3)N2C1=O)c1cc2cc(C(F)P(=O)(O)O)ccc2s1` (stereo partly shown) [Example 302], for which the IC50 in assay [1] fell in the range of 0.1 to 1 µM; in assay [2], 3 to 30 µM.
The matching figures for `O=C(N[C@H]1C[C@H]2C[C@H]2C[C@H]2CC[C@@H](C(=O)N3CC(c4cnccc4O)C3)N2C1=O)c1cc2cc(C(F)P(=O)(O)O)ccc2s1` (stereo partly drawn) [Example 293, (fluoro(2-(((3S,6S,7aR,8aS,9aR)-3-(3-(4-hydroxypyridin-3-yl)azetidine-1-carbonyl)-5-oxodecahydro-1H-cyclopropa[d]pyrrolo[1,2-a]azocin-6-yl)carbamoyl)benzo[b]thiophen-5-yl)methyl)phosphonic acid]: below 0.1 µM and 0.3 to 3 µM.
The matching figures for `O=C(N[C@H]1C[C@@H]2C[C@@H]2C[C@H]2CC[C@@H](C(=O)N3CC[C@@H](N4CCOCC4)C3)N2C1=O)c1cc2cc(C(F)(F)P(=O)(O)O)ccc2s1` [Compound 16, (difluoro(2-(((3S,6S,7aS,8aR,9aR)-3-((R)-3-morpholinopyrrolidine-1-carbonyl)-5-oxodecahydro-1H-cyclopropa[d]pyrrolo[1,2-a]azocin-6-yl)carbamoyl)benzo[b]thiophen-5-yl)methyl)phosphonic acid]: 0.1 to 1 µM and 3 to 30 µM.
As for `O=C(N[C@H]1C[C@H]2C[C@H]2C[C@H]2CC[C@@H](C(=O)N3CC(c4ccon4)C3)N2C1=O)c1cc2cc([C@@H](F)P(=O)(O)O)ccc2s1` (single isomer, unassigned) [Example 344], the IC50 in assay [1] was below 0.1 µM; in assay [2] it was 3 to 30 µM.
The like results for `O=C(N[C@H]1C[C@@H]2C[C@@H]2C[C@H]2CC[C@@H](C(=O)N3CC(C(O)c4ccccc4)C3)N2C1=O)c1cc2cc(CP(=O)(O)O)ccc2s1` (stereo partly drawn) [Example 365, ((2-(((3S,6S,7aS,8aR,9aR)-3-(3-(hydroxy(phenyl)methyl)azetidine-1-carbonyl)-5-oxodecahydro-1H-cyclopropa[d]pyrrolo[1,2-a]azocin-6-yl)carbamoyl)benzo[b]thiophen-5-yl)methyl)phosphonic acid] were, in that order, 1 to 10 µM and 3 to 30 µM.
The matching figures for `O=C(N[C@H]1C[C@@H]2C[C@@H]2C[C@H]2CC[C@@H](C(=O)N3C[C@H]4[C@@H]3CCN4c3cccnc3)N2C1=O)c1cc2cc(C(F)P(=O)(O)O)ccc2s1` (stereo partly drawn) [Example 295, (fluoro(2-(((3S,6S,7aS,8aR,9aR)-5-oxo-3-((1S,5S)-2-(pyridin-3-yl)-2,6-diazabicyclo[3.2.0]heptane-6-carbonyl)decahydro-1H-cyclopropa[d]pyrrolo[1,2-a]azocin-6-yl)carbamoyl)benzo[b]thiophen-5-yl)methyl)phosphonic acid]: below 0.1 µM and 0.3 to 3 µM.
The like results for `Cn1cc(CC2CN(C(=O)[C@@H]3CC[C@@H]4C[C@H]5C[C@H]5C[C@H](NC(=O)c5cc6cc(CP(=O)(O)O)ccc6s5)C(=O)N43)C2)cn1` [Example 379, ((2-(((3S,6S,7aS,8aR,9aR)-3-(3-((1-methyl-1H-pyrazol-4-yl)methyl)azetidine-1-carbonyl)-5-oxodecahydro-1H-cyclopropa[d]pyrrolo[1,2-a]azocin-6-yl)carbamoyl)benzo[b]thiophen-5-yl)methyl)phosphonic acid] were, in that order, 1 to 10 µM and 3 to 30 µM.
Consider `O=C(N[C@H]1C[C@@H]2C[C@@H]2C[C@H]2CC[C@@H](C(=O)N3CC(C(=O)N4CCOCC4)C3)N2C1=O)c1cc2cc(C(F)(F)P(=O)(O)O)ccc2s1` [Compound 15, (difluoro(2-(((3S,6S,7aS,8aR,9aR)-3-(3-(morpholine-4-carbonyl)azetidine-1-carbonyl)-5-oxodecahydro-1H-cyclopropa[d]pyrrolo[1,2-a]azocin-6-yl)carbamoyl)benzo[b]thiophen-5-yl)methyl)phosphonic acid], for which the IC50 in assay [1] is below 0.1 µM; in assay [2] it was 3 to 30 µM.
With `N#CC1CN(c2ccncc2C2CN(C(=O)[C@@H]3CC[C@@H]4C[C@H]5C[C@H]5C[C@H](NC(=O)c5cc6cc([C@@H](F)P(=O)(O)O)ccc6s5)C(=O)N43)C2)C1` [Example 428, ((S)-(2-(((3S,6S,7aS,8aR,9aR)-3-(3-(4-(3-cyanoazetidin-1-yl)pyridin-3-yl)azetidine-1-carbonyl)-5-oxodecahydro-1H-cyclopropa[d]pyrrolo[1,2-a]azocin-6-yl)carbamoyl)benzo[b]thiophen-5-yl)fluoromethyl)phosphonic acid], the results for the half-maximal inhibitory concentration (IC50) in assay [1] and in assay [2] were below 0.1 µM and 3 to 30 µM, respectively.
On to `N#Cc1cccc(C2CN(C(=O)[C@@H]3CC[C@@H]4C[C@H]5C[C@H]5C[C@H](NC(=O)c5cc6cc(C(F)(F)P(=O)(O)O)ccc6s5)C(=O)N43)C2)c1` [Compound 49, ((2-(((3S,6S,7aS,8aR,9aR)-3-(3-(3-cyanophenyl)azetidine-1-carbonyl)-5-oxodecahydro-1H-cyclopropa[d]pyrrolo[1,2-a]azocin-6-yl)carbamoyl)benzo[b]thiophen-5-yl)difluoromethyl)phosphonic acid], for which the IC50 is below 0.1 µM in assay [1] and 3 to 30 µM in assay [2].

The record behind these values is patent publication US20250215030A1, “STAT MODULATORS AND USES THEREOF” (Recludix Pharma, Inc., priority 2022, published 2025).
